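Five concentrations, 48 hours, 96-well plates. The concentration for 50% growth inhibition is given as GI50. TGI: total growth inhibition.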
Key:
Test in all cases: growth of human tumour cells (NCI), 48 h
SW-620 colon = tested on: SW-620 colon
MALME-3M melanoma = tested on: MALME-3M melanoma
KM12 colon = tested on: KM12 colon
HOP-62 NSCLC = tested on: HOP-62 NSCLC
SNB-75 CNS = tested on: SNB-75 CNS
NCI/ADR-RES ovarian = tested on: NCI/ADR-RES ovarian
LOX IMVI melanoma = tested on: LOX IMVI melanoma
CCRF-CEM leukemia = tested on: CCRF-CEM leukemia
SK-MEL-2 melanoma = tested on: SK-MEL-2 melanoma
MDA-MB-231 breast = tested on: MDA-MB-231 breast

Structure (SMILES) | GI50 (SW-620 colon) | TGI (SW-620 colon) | GI50 (MALME-3M melanoma) | TGI (MALME-3M melanoma) | GI50 (KM12 colon) | TGI (KM12 colon) | GI50 (HOP-62 NSCLC) | TGI (HOP-62 NSCLC) | GI50 (SNB-75 CNS) | TGI (SNB-75 CNS) | GI50 (NCI/ADR-RES ovarian) | TGI (NCI/ADR-RES ovarian) | GI50 (LOX IMVI melanoma) | TGI (LOX IMVI melanoma) | GI50 (CCRF-CEM leukemia) | TGI (CCRF-CEM leukemia) | GI50 (SK-MEL-2 melanoma) | TGI (SK-MEL-2 melanoma) | GI50 (MDA-MB-231 breast) | TGI (MDA-MB-231 breast)
COC1=CC(c2ccc[nH]2)=N/C1=C\c1[nH]c(C)c(CC(=O)OCc2ccccc2)c1CCC(=O)OCc1ccccc1 | 0.345 µM | 2.43 µM | 0.886 µM | 2.62 µM | 0.367 µM | 2.26 µM | 0.365 µM | 2.39 µM | 0.275 µM | 1.53 µM | 0.579 µM | 3.37 µM | 0.284 µM | 1.03 µM | 0.229 µM | 2.29 µM | 0.281 µM | 0.758 µM | 0.224 µM | 1.67 µM
Cc1c(O)c2ccccc2oc1=O | – | > 100 µM | – | > 100 µM | – | > 100 µM | – | > 100 µM | – | > 100 µM | – | > 100 µM | – | > 100 µM | – | > 100 µM | – | > 100 µM | – | > 100 µM
Nc1cc(F)ccc1CC(=O)O | – | > 100 µM | – | > 100 µM | – | > 100 µM | – | > 100 µM | – | > 100 µM | – | > 100 µM | – | > 100 µM | – | > 100 µM | – | > 100 µM | – | > 100 µM
CSc1ccc(-c2ccccc(=O)c2O)cc1 | 0.386 µM | > 100 µM | 2.41 µM | > 100 µM | 0.508 µM | > 100 µM | 0.54 µM | 50.9 µM | 3.12 µM | > 100 µM | 0.278 µM | 2.12 µM | 0.336 µM | 17.1 µM | 0.347 µM | > 100 µM | 0.966 µM | 31.4 µM | 0.603 µM | > 100 µM
Nc1nc2c(ncn2C2CCC(CO)O2)c(=O)n1C(=O)c1ccccc1 (stereo not drawn) | – | > 100 µM | – | > 100 µM | – | > 100 µM | – | > 100 µM | – | > 100 µM | – | > 100 µM | – | > 100 µM | – | > 100 µM | – | > 100 µM | – | > 100 µM
N#Cc1c(NC(=O)NCc2ccccc2)sc2c1CCCC2 | 0.388 µM | > 100 µM | 0.598 µM | > 100 µM | 0.425 µM | > 100 µM | 1.51 µM | > 74.8 µM | 0.249 µM | 36 µM | 0.424 µM | > 34.1 µM | 0.643 µM | > 100 µM | 0.459 µM | > 100 µM | 5.08 µM | > 100 µM | 1.73 µM | > 42.4 µM
C[C@]12CC[C@@H]3c4cc(OC(F)F)c(O)cc4CC[C@H]3[C@@H]1CC[C@@H]2OS(N)(=O)=O | 0.417 µM | > 100 µM | 0.348 µM | 27.4 µM | 0.545 µM | 31 µM | 0.693 µM | 35.7 µM | 0.23 µM | 0.945 µM | 0.484 µM | 25.3 µM | 0.585 µM | 22.6 µM | 0.393 µM | > 100 µM | 0.88 µM | 55.8 µM | 2.68 µM | 41.5 µM
COC1C(CO)OC(n2c3ccccc3c3c4c(c5c6ccccc6[nH]c5c32)C(=O)NC4=O)C(O)C1O (stereo not drawn) | < 0.01 µM | 0.616 µM | < 0.018 µM | – | 0.0176 µM | 0.55 µM | 0.0514 µM | 1.2 µM | 0.158 µM | 3.85 µM | 1.37 µM | > 43.7 µM | < 0.01 µM | 0.0352 µM | < 0.01 µM | 2.42 µM | 0.234 µM | 0.856 µM | 0.0595 µM | 0.343 µM
CCN(CC)CCNc1ccc(C)c2sc3cc(Cl)ccc3c(=O)c12 | 1.86 µM | 3.6 µM | 1.84 µM | 3.61 µM | 1.75 µM | 3.26 µM | 1.44 µM | 2.9 µM | 1.71 µM | 4.98 µM | 1.62 µM | 3.23 µM | 1.58 µM | 3.01 µM | 1.44 µM | 3.36 µM | 1.88 µM | 3.72 µM | 1.41 µM | 2.93 µM
Nc1c(C(=O)c2ccc(-c3cccnc3)cc2)cnn1-c1ccc(F)cc1 | > 22.4 µM | > 25 µM | 11 µM | > 20.3 µM | > 20.8 µM | > 25 µM | > 18.7 µM | > 25 µM | 11.3 µM | > 25 µM | > 19.5 µM | > 25 µM | > 25 µM | > 25 µM | – | > 25 µM | > 25 µM | > 25 µM | > 13.1 µM | > 25 µM
O=C1C(Cl)=C(Sc2nnc3c4ccccc4c4ccccc4c3n2)C(=O)c2ccccc21 | – | > 65.1 µM | – | 11.6 µM | – | 30.7 µM | – | 32 µM | – | 8.77 µM | – | > 86.3 µM | – | 17.2 µM | – | 14.5 µM | – | 34.8 µM | – | 17 µM
COc1ccc(N=Cc2c(O)ccc3c2oc2cc(Cl)c(O)c(Cl)c23)cc1 | 11.8 µM | 25.9 µM | 3.63 µM | 21.8 µM | 7.91 µM | 21.3 µM | 14.3 µM | 33.5 µM | 12.7 µM | 48.8 µM | 12.2 µM | 50.7 µM | 15.1 µM | 53.4 µM | 4.5 µM | 31.8 µM | 5.92 µM | 22.9 µM | 14.7 µM | 48.4 µM
CC(C)(C)N1CCC1CN (stereo not drawn) | > 100 µM | > 100 µM | > 100 µM | > 100 µM | > 100 µM | > 100 µM | > 100 µM | > 100 µM | > 100 µM | > 100 µM | > 100 µM | > 100 µM | > 100 µM | > 100 µM | > 100 µM | > 100 µM | > 100 µM | > 100 µM | > 100 µM | > 100 µM
CC12OOC(c3ccccc31)c1c2ccc2ccccc12 (stereo not drawn) | – | 3.94 µM | – | 5.79 µM | – | 7.43 µM | – | 30.2 µM | – | 22.5 µM | – | 24.1 µM | – | 6.41 µM | – | 2.8 µM | – | 24.9 µM | – | 26.6 µM

From PubChem BioAssay (NCI)
